In patent US8207137B2, “Method of inhibiting angiogenesis or invasion or formation of metastases” (INSERM, priority 2001, dated 2012):

What was measured:
B16F10 cells = test: Syngenic metastatic tumor model (pulmonary metastases); type: in vivo; details: C57B1/6 mice, B16F10 i.v.; AMEP expressed in muscle, doxycycline induction; after 7 days of treatment
Source text: The cDNA of AMEP was subcloned at the Eco RV site of the vector pBi (Clonetech, Palo Alto, Calif., USA). The expression of the gene of interest in this vector was under the dependence of a promoter responding to tetracycline in an expression system involving the eukaryote gene Tet-On. The Tet-On vector expresses the transactivator rtTA (reverse tetracycline transcriptional activator) and the vector Tet-tTS expresses the silencer tTS (tetracycline transcriptional silencer). The purifications of the plasmids were performed in a manner such that no endotoxin was present (Maxi endo free Kit, Quiagen). The purified plasmid DNA was dissolved in endotoxin-free sterile 0.9% NaCl at the desired concentration.
20 μg of plasmid pBi-AMEP, 10 μg of plasmid Tet-off and 20 μg of plasmid Tet-on were dissolved in 30 μl of sterile 0.9% NaCl and injected into the tibia cranial muscle of nude or C57B1/6 mice aged 8 weeks and previously anesthetized by intraperitoneal inoculation of pentobarbital as described by Mir et al. (Mir et al., 1999). In brief, 8 electric shocks of 200 V/cm were applied for 20 ms at a frequency of 1 Hz, by means of an electrode to the mouse paw and containing two steel plates. The electrode was connected to an electropulsator PS-15 (Jouan, St Herblain, France). The same plasmids not containing the AMEP gene constituted the negative control. […]

CPAE = test: Cell proliferation, tritiated thymidine incorporation; type: cell-based, Bovine
Experimental: The cells were cultured at the rate of 20,000 cells per well (96-well plate, Greiner) in the complete medium. After 24 h, the cells were cultured in a medium containing a concentration lower by half than that corresponding to the complete medium to induce the cell in phase G0/G1 of proliferation for 24 supplementary hours. The cells were then cultured for 30 h with complete medium in the presence or without the presence of AMEP. Tritiated thymidine (1 μCi per well) was then added to the cells and incubated for 18 hours. Incorporation of the tritiated thymidine by the cells was quantified by filter paper according to the protocol described for the use of a Skatron (Skatron, Lier, Norway). Radioactivity was then determined by counting after addition of scintillation liquid. The results were expressed as a percentage in relation to the control.

AMEP: disintegrin domain of human metargidin (Met-420 to Glu-511, SEQ ID NO. 2), 91 amino acids, 9.7 kDa; recombinant or expressed in vivo by gene electrotransfer
inhibition of the number of pulmonary metastases (B16F10 cells): 74.2% | inhibition of proliferation of endothelial cells (CPAE; 2 μg/ml): 40% | inhibition of proliferation of endothelial cells (CPAE; 5 μg/ml (maximal effect)): 60% | inhibition of proliferation of endothelial cells (CPAE; 10 μg/ml, compared with 60% at 5 μg/ml): identical percentage | % inhibition of cell proliferation by AMEP (5 μg/ml) (CPAE; bovine endothelial cells, 5 μg/ml, mean±SEM): 60.4 ± 3.2%
